Experimental data from ChEMBL document CHEMBL1240466, “New substituted 4-arylaminoquinazolines as potent inhibitors of breast tumor cell lines: in vitro and docking experiments” (Eur J Med Chem, 2010).
Active and inactive are the calls of the source.

Assays:
Type in all cases: functional, cell-based
MCF7 = assay: Cytotoxicity against human MCF7 cells by spectrophotometry
NCI/ADR-RES = assay: Cytotoxicity against human NCI/ADR-RES cells by spectrophotometry
NCI-H460 = assay: Cytotoxicity against human NCI-H460 cells by spectrophotometry
UACC-62 = assay: Cytotoxicity against human UACC62 cells by spectrophotometry
OVCAR-3 = assay: Cytotoxicity against human OVCAR-3 cells by spectrophotometry
PC-3 = assay: Cytotoxicity against human PC3 cells by spectrophotometry
K562 = assay: Cytotoxicity against human K562 cells by spectrophotometry
HT-29 = assay: Cytotoxicity against human HT-29 cells by spectrophotometry

Measured: Activity

Cc1cccc(Nc2ncnc3cc4c(cc23)OCO4)c1
active: all assays above

c1ccc(Nc2ncnc3cc4c(cc23)OCO4)cc1
active: all assays above
